Reference: patent US20230174571A1, “METHOD OF TREATING SHIP1-MEDIATED DISEASES USING PELOROL DERIVATIVES” (Zebrapeutics Inc., priority 2020, published 2023)

Experiments:
[1] = tested on: SHIP1 (full length SHIP1, PPAC, PAC2); experiment: In vitro phosphatase assay; format: biochemical; details: full length SHIP1, 293T derived PPAC, E. coli derived PPAC, and PAC2; 50 μM IP4
Method: In vitro phosphatase assay. The phosphatase assay was performed in 96-well microtiter plates with 10 ng of enzyme/well in a total volume of 25 μL in 20 mM Tris-HCl, pH 7.4, 150 mM NaCl, 0.05% Tween-20, 10 mM MgCl2 as described (Ong et al., 2007). Enzyme was incubated with or compound I-1 (dissolved in ethanol) for 10 minutes at 23° C., before the addition of 50 μM of inositol-1,3,4,5-tetrakisphosphate (IP4) (Echelon Bioscience Inc., Salt Lake City, Utah). The reaction was allowed to proceed for 10 minutes at 37° C. and the amount of inorganic phosphate released was assessed by the addition of Malachite
Green reagent and absorbance measurement at 650 nm. For enzyme kinetic determination, different concentrations of IP4 (0-300 μM) were used and the reactions were stopped at different time points. Initial velocities were calculated, and Kcat and KM were determined using GraphPad 6 software.

MM.1S cells = experiment: MM.1S tumour model in NOD/SCID mice; format: in vivo, mouse; details: NOD/SCID mice bearing MM.1S tumours; administered through drinking water
Method: The IBD model mice were dosed with 2 or 3 mg/kg of compounds of the present disclosure, for example compound I-1. The MM model mice were dosed with about 20 to about 50 mg/kg of compounds of the present disclosure, for example compound I-1. The appropriate amount of 5 mg/mL PBS solution with 5% v/v Cremophore EL/5% v/v ethanol as prepared above was diluted into the mice's drinking water.
MM.1S cells expressing firefly luciferase were injected along with Matrigel basement membrane into the upper flank of NOD/SCID mice and allowed to establish for two weeks. Compound I-1 or vehicle (n=4) were administered through drinking water (as described in General Methods).

LPS-induced TNFα = experiment: Mouse endotoxemia model: serum TNFα after i.p. LPS; format: in vivo; details: 1 h
Method: Mouse Endotoxemia Model. Groups of 6-8 week old BALB/c SHIP1+/+ and SHIP1−/−mice were intraperitoneally injected with either 1 or 5 mg/kg of LPS with or without co-administration of 1 mg/kg of IL10. Blood was drawn 1 hour later by cardiac puncture for determination of plasma cytokine levels by ELISA. ELISA kits were purchased from BD Biosciences (Mississauga, ON) for TNFα.
A role for STAT3 in mediating IL10 inhibition of TNFα in vivo was first described by Takeda et al (Takeda et al., 1999). […] This implies that a protein other than STAT3 might contribute to IL10 action. […] Presently, the ability of IL10 to inhibit LPS-induced inflammatory cytokine/chemokine expression in vivo is shown (FIG. 1A) in SHIP1^+/+ and SHIP1^−/− mice, and found IL10 inhibited TNFα in SHIP1^+/+ but not SHIP1^−/− mice. It was previously shown that SHIP1 phosphatase activity is allosterically stimulated by its product PI(3,4)P2 (Ong et al., 2007). […] Presently, it is shown that compound I-1 inhibits LPS-induced TNFα in SHIP1^+/+ but not SHIP1^−/− mice, showing that these compounds can mimic anti-inflammatory properties of IL10 and is indeed specific for SHIP1 (FIG. 1B).
Data represent means of *p<0.05, **p<0.01 when compared with LPS-alone-stimulated mice, ns=not significant. […] Fractions were collected every 5 min for measurement of TNFα levels Data are representative of two independent experiments.

PAC2-K681A = biological target: T1, PAC2-K681A (Mus musculus, UniProt Q9ES52, K681A); experiment: Biolayer interferometry, PAC2-K681A; format: binding; details: 20 μM analyte; K681A vs wild-type PAC2
T1 construct: PAC1 and PAC2 consists of phosphatase and C2 domain (residues aa 402-861 and aa 402-857 respectively); made in house; host or cells: E. coli BL21 co-transformed with pBirAcm
T1 sequence (Q9ES52 402-857 K681A): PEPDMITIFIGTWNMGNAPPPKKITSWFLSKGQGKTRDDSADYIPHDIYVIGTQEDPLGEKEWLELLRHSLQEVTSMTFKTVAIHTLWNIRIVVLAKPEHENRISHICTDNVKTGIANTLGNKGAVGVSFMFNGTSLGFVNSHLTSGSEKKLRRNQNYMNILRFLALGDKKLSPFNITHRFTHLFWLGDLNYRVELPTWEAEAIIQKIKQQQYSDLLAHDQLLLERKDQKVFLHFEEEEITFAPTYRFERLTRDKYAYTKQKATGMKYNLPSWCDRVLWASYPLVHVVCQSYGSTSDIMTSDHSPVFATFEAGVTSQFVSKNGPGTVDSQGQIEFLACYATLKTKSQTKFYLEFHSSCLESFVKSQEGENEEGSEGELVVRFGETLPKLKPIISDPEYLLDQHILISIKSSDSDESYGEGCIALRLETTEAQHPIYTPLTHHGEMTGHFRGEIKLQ
Method: Expression of PAC2-Avi tag for Biolayer interferometry. A sequence corresponding to Avi-tag ([…]) was added to the c-terminal end of the PAC2 in LIC-HMT-PAC2 expressing vector via standard restriction digestion and ligation. The LIC-HMT-PAC2-Avi expressing vector was then co-transformed into E. coli BL21 cells with pBirAcm expression vector in 1:1 molar ratio. Overnight culture was inoculated with a 250-fold dilution to start the actual culture. The cells were grown at 37° C. in LB medium (supplemented with 50 μg/mL of kanamycin and 10 μg/mL of chloramphenicol) with shaking speed of 225 rpm. When OD600 reached about 0.6, 5 mM of biotin in bicine buffer pH 8.3 was added to the culture to have final concentration of 125 μM of biotin. The culture was then cooled down to room temperature before the addition of 0.4 mM isopropyl-B-D-1-thiogalactopyranoside (IPTG) to induce the expression of the recombinant protein with Avi-tag. The rest of the method is identical as written in “Expression of PAC2 for crystallography”.
Biolayer interferometry. […] The association was measured for 600 s at an analyte concentration of 20 μM followed by dissociation for 300 s in the same buffer as the baseline. The raw data was analyzed using the Octet Red Data Analysis software (ver. 8.2). […]

Molecule	activation of phosphatase activity [1]	tumour mass (bioluminescence imaging) (MM.1S cells)	LPS-induced TNFα (serum) (LPS-induced TNFα; SHIP1+/+ mice)	LPS-induced TNFα (serum) (LPS-induced TNFα; SHIP1−/− mice)	binding to PAC2 with K681A substitution (BLI) (PAC2-K681A)
Cc1cc(O)cc2c1C1(C)CCC3C(C)(C)CCCC3(C)C1C2 (stereo not shown) [Compound I-1]	could be activated	effectively reduces tumour mass	inhibits	not	
CC12CCC3C(C)(C)C(N)CCC3(C)C1Cc1cc(O)cc(O)c12 (stereo not shown) [Compound I-2]					impairs
IL10: anti-inflammatory cytokine interleukin-10			inhibited	not	
